From patent EP0478631B1, “TARGETTING AGENTS” (CANCER RESEARCH CAMPAIGN TECHNOLOGY LTD., priority 1989, dated 1991)

Target: Cloudman S91
Assay: Tyrosinase activity in vitro (release of tritiated water from 3,5-3H-tyrosine)
Type: cell-based
Details: molar concentration giving a response equal to half the maximum; tyrosinase activity relative to melanotropin-free control; Cloudman S91 monolayers, 24 h + further 24 h with 3,5-³H-tyrosine; read-out: EC₅₀
Method: Cloudman S91 were grown in monolayers to a density of approximately 25,000 cells cm⁻² in 25cm² culture flasks using 4 ml Ham's F10 medium supplemented with 10% heat inactivated foetal calf serum. The medium was replaced and 10⁻⁵ and 10⁻⁹ molar concentrations of the test or control compound added. After 24 h, medium and melantropins were renewed and 1»Ci, 3,5-³H-tyrosine included. The final specific activity of 3,5-³H-tyrosine incubation medium was 0.1 Ci/mmol.
After a further 24h, 0.2ml of the medium from each incubation were transferred to centrifuge tubes containing 1ml activated charcoal suspension (100 mg/ml in 0.1M citric acid). The tubes were vortexed and centrifuged at 700 x g for 5 min. Aliquots (0.5 ml) of each supernatant were transferred to scintillation vials and counted on a Packard Tri-Carb 300D scintillation counter. Aliquots (0.1ml) of the unextracted medium were also counted. Finally, the remaining medium was removed and the cell monolayer suspended in 1ml isotonic trypsin/EDTA. The dispersed cells were counted in a Coulter counter.
The amount of water generated from the tyrosine per 10⁵ cells was calculated and the results divided by the value obtained from the melanotropin-free control. The activities of the melanotropins were expressed as the molar concentrations required to give responses equal to half the maximum (EC₅₀) and are recorded in Table 1.

Molecule | EC50
CCCC[C@H](NC(C)=O)C(=O)N[C@@H](CC(=O)O)C(=O)N[C@@H](Cc1c[nH]cn1)C(=O)N[C@H](Cc1ccccc1)C(=O)N[C@@H](CCCNC(=N)N)C(=O)N[C@@H](Cc1c[nH]c2ccccc12)C(=O)N[C@@H](CCCCN)C(N)=O [MSH(4-10), Ac-[Nle⁴, Asp⁵, D-Phe⁷, Lys¹⁰] α-MSH₄₋₁₀-NH₂] | 0.74 nM
alpha-melanocyte stimulating hormone [MSH] | 2.81 nM
